According to patent US20230321237A1, “REGULATORY T CELL EPITOPES” (EPIVAX, INC., priority 2020, published 2023):

Key:
[1] = system: CD4 T cells in donor PBMC stimulated with Tetanus Toxoid; format: cell-based, human
[2] = system: CD4+ effector memory T cells in PBMC; format: cell-based, human
[3] = system: Class II HLA alleles HLA-DRB1*0101, *0301, *0401, *0701, *0801, *0901, *1101, *1301, *1501; assay: HLA Binding Assay with soluble HLA molecules (competition with labeled control peptide); design: species or system human; conditions: FIG. 18
Procedure: HLA Binding Assay. Binding activity was analyzed at EpiVax (Providence, Rhode Island). The binding assay used (Steere A C et al., (2006), J Exp Med, […]:961-73) yielded an indirect measure of peptide-MHC affinity. Soluble HLA molecules were loaded onto a 96-well plate with the unlabeled experimental Tregitopes and labeled control peptide. Once the binding mixture reached steady equilibrium (at 24 hours), the HLA-Tregitope complexes were captured on an ELISA plate coated with anti-human DR antibody and detected with a Europium-linked probe for the label (PerkinElmer, Waltham, MA). Time-resolved fluorescence measuring bound labeled control peptide is assessed by a SpectraMax® M5 unit (Spectramax, Radnor, PA). Binding of experimental Tregitopes was expressed as the percent inhibition of the labeled control peptide ([…]). The percent inhibition values for each experimental Tregitope (across a range of molar concentrations) were used to calculate the concentration at which it inhibits 50% of the labeled control […] specific binding, i.e. the Tregitope's IC50.
Selected experimental Tregitopes were solvated in DMSO. The diluted Tregitopes were then mixed with binding reagents in aqueous buffering solution, yielding a range of final concentrations from 100,000 nM down to 100 nM. […]

[4] = biological target: T1, Recombinant human cathepsin B (Homo sapiens, UniProt P07858); assay: Cathepsin B cleavage of the Val-Cit site; format: biochemical; conditions: 0.01 ug rhCathepsin B, 10 uM peptide substrate, RT 15 min, mass spec
T1 construct: purchased R&D Systems 953-CY
Procedure: Recombinant human cathepsin B (catalog 953-CY of R&D Systems™) can be used to evaluate the cleavage of the Val-Cit site engineered into the Tregitope peptide. The activity assay protocol can be used according to the R&D Systems™'s recommendations with final assay conditions of 0.01 ug rhCathepsin B and 10 uM of peptide substrate. After incubation of Cathepsin B with purified peptides (at RT for 15 min). The peptide can be evaluated by mass spec using the Qstar XL Pro™.

[5] = CRIM-negative infantile Pompe disease patients; cited from earlier work
[6] = system: PBMCs from lupus patients; conditions: cited from earlier work
[7] = system: soluble HLA class II molecules (human DR molecules); conditions: cited from earlier work

AAALVSLATAALLGHI [SEQ ID NO: 3]
effect on CD4 proliferation [1]: little effect

AHGVFLLNSNAMDVVLQ (listed as Homo sapiens) [SEQ ID NO: 5]
ratio of T regulatory cells to T effector cells [1]: good ratios

PRELSGSSPVLEETH (listed as Homo sapiens) [SEQ ID NO: 7]
Tregitope suppressive activity [1]: demonstrated Tregitope suppressive activity | effect on CD4 proliferation [1]: little effect | inhibition of CD4 T cell proliferation (CFSE low) [1]: little effect

Tetanus Toxoid: proliferation stimulant (Astarte Biologics) in the TTBSA [reference compound]
CD4 proliferation caused by the stimulant [1]: caused CD4 proliferation | activated (CD25 high) CD4 T cells also proliferating (CFSE low) [2]: approximately 90%

SHRLLAVCALVSLATAA (listed as Homo sapiens) [SEQ ID NO: 1]
ratio of T regulatory cells to T effector cells [1]: best ratios | suppression of activated effector CD4+ T cells (CD4+/CD25hi/FoxP3int) reacting to Tetanus Toxoid [2]: Suppressed

KDILTLRLDVMMETE (listed as Homo sapiens) [SEQ ID NO: 4]
initial HLA binding results compared with prediction [3]: high false negative | effect on CD4 proliferation [1]: little effect

ILTIHFTGHSFIYGK (listed as Homo sapiens) [SEQ ID NO: 74, known Tregitope used as positive control in the TTBSA, reference compound]
inhibition of CD4 T cell proliferation (CFSE low) [1]: successfully inhibit | proliferation of regulatory T cells [1]: increased proliferation

PEG12
cleavage of the Val-Cit site by Cathepsin B [4]: successful cleavage

rhGAA: recombinant human acid alpha-glucosidase for enzyme replacement therapy
antibody titers reactive to administered rhGAA [5]: high antibody titers

RIHMVYSKRSGKPRGYAFIEY [peptide 131-151]
randomly selected lupus patients whose PBMCs contain T cells that proliferate in response to the peptide [6]: 40% | binding to human DR molecules [7]: binds to a large panel of human DR molecules
